Patent US5919765A, “Inhibitors of factor XA” (COR Therapeutics, Inc., priority 1995, dated 1999)
Numbered stars: 1 amine (or outer) side, 2 acyl side, 3 side chain; on linkers, the order of the positions; unused ones are H or OH. Square brackets hold non-standard residues; d marks the D form. Peptide text beside a SMILES is read from it. * marks the point of attachment. dCit = NC(=O)NCCC[C@@H](N)C(=O)O; Suc = O=C(CCC(=O)[*:2])[*:1]; Boc = CC(C)(C)OC(=O)*; Aib = CC(C)(N)C(=O)O

How the values were obtained:
thrombin = target: T1, thrombin (Homo sapiens, UniProt P00734); experiment: Thrombin amidolytic assay (chromogenic substrate Chromozym TH); type: biochemical; conditions: read-out: Inhibitory Activity (IC50) Thrombin
T1 construct: The formation of thrombin is the result of the proteolytic cleavage of its precursor prothrombin

Rabbits [1] = experiment: Rabbit deep vein thrombosis model; type: in vivo
Text: Haemost. […] Rabbits were anesthetized with I.M. injections of Ketamine, Xylazine, and Acepromazine cocktail.

Rabbits [2] = experiment: Cuticle Bleeding Time model in rabbits; type: in vivo, rabbit; conditions: 1500 μg/kg+14.85 μg/kg/min
Description: In an ancillary study, a Cuticle Bleeding Time model was used to evaluate the effect of test compounds on bleeding time (BT) measurements in rabbits. The standardized protocol involved anesthesia and catheterization of rabbits as previously described in this Example 43. To measure BT, a toe nail was cut 5 mm from the base of the cuticle with a canine nail trimming device. Time until cessation of bleeding was recorded by wicking the blood on to BT blotting paper in 30 second intervals. Test compound was administered as a bolus followed by infusion regimen. Two BT measurements were obtained prior to administration of test compound and three BT measurements accomplished serially after initiation of steady state infusion of test compound. BT measurements were allowed to continue for up to 30 minutes at which time it was stopped with application of silver nitrate. Blood samples were obtained just prior to all BT measurements and processed for measurement of hematological and coagulation parameters.

[3] = rabbit venous thrombosis model, bolus + infusion

| Compound | IC50 (thrombin) [µM] | also measured |
| --- | --- | --- |
| N=C(N)NCCC[C@@H](C=O)NC(=O)CNC(=O)[C@@H](CCCNC(=N)N)NC(=O)CC(=O)O [HOOCCH2 CO--D--Arg--Gly--Arg--H, Malonoyl-D-Arg-Gly-Arg--H] | > 100 |  |
| CC(C)(C)OC(=O)N[C@H](CCCCN)C(=O)NCC(=O)N[C@H](C=O)CCCNC(=N)N [Boc--D--Lys--Gly--Arg--H, Boc-D-Lys-Gly-Arg--H] (Boc-[dK]-Gly-Arg-aldehyde) | > 100 |  |
| CC(C)(C)OC(=O)N[C@H](CCCNC(N)=O)C(=O)NCC(=O)N[C@H](C=O)CCCNC(=N)N [Boc--D--Cit--Gly--Arg--H, Boc-D-Cit-Gly-Arg--H] (Boc-[dCit]-Gly-Arg-aldehyde) | > 100 |  |
| CC(C)(C)OC(=O)N[C@H](CCCNC(=N)N)C(=O)NCC(=O)N[C@H](C=O)CCCNC(=N)N [Boc--D--Arg--Gly--Arg--H, Boc-D-Arg-Gly-Arg--H] (Boc-[dR]-Gly-Arg-aldehyde) |  | % Inhibition of Thrombosis (Rabbits [1]; 200 + 1.98 μg/kg + μg/kg/min): 8.4%; % Inhibition of Thrombosis (Rabbits [1]; 600 + 5.94 μg/kg + μg/kg/min): -6.6%; antithrombotic efficacy (Rabbits [1]; [3]): demonstrated antithrombotic efficacy at the higher doses evaluated |
| N=C(N)NCCC[C@@H](C=O)NC(=O)CNC(=O)[C@@H](CCCNC(=N)N)NC(=O)CCC(=O)O [HOOC(CH2)2 CO--D--Arg--Gly--Arg--H, Succinoyl-D-Arg-Gly-Arg--H] (Suc-[dR]-Gly-Arg-aldehyde) | > 100 |  |
| CCOC(=O)N[C@H](CCCNC(=N)N)C(=O)NCC(=O)N[C@H](C=O)CCCNC(=N)N [EtOCO--D--Arg--Gly--Arg--H, EtO2 C-D-Arg-Gly-Arg--H] | > 100 |  |
| CC(C)(C)OC(=O)N[C@H](CCCNC(=N)N)C(=O)NC(C)(C)C(=O)N[C@H](C=O)CCCNC(=N)N [Boc--D--Arg--Aib--Arg--H, Boc-D-Arg-Aib-Arg--H] (Boc-[dR]-[Aib]-Arg-aldehyde) | > 500 |  |
| CC(C)(C)OC(=O)N[C@H](CCCN=C(N)N)C(=O)NCC(=O)N[C@H](C=O)CCCN=C(N)N [Boc--D--Arg--Gly--Arg--H, Boc-D-Arg-Gly-Arg--H] (Boc-[dR]-Gly-Arg-aldehyde) |  | effects on hematological parameters as compared to saline controls (Rabbits [1]; [3]): no significant effects; changes in hematological parameters from pre to post administration (Rabbits [2]): no significant changes |
